# Literature values as cited in patent US7838668B2, “Method for crystallizing sucralose” (JK Sucralose Inc., priority 2006, dated 2010).
# Conditions: relative to sucrose; background statement, no test described
smiles,measurement,value
OC[C@H]1O[C@H](O[C@]2(CCl)O[C@H](CCl)[C@@H](O)[C@@H]2O)[C@H](O)[C@@H](O)[C@H]1Cl [sucralose],sweetness,600 times of sucrose
